Results published in patent publication US20230085307A1, “PYRIDAZINONE COMPOUND AND HERBICIDE” (NISSAN CHEMICAL CORPORATION, priority 2019, published 2023).

Key:
[1] = tested on: lambsquarters; experiment: Test Example 4: herbicidal effect by soil treatment (Table 19, symbol O); format: in vivo, lambsquarters (Chenopodium album); conditions: AAH 320 g/ha
How it was run: (§1)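 Scoring uses the grading scale of an earlier test, three weeks post-application. Treatment consists of spraying a diluted emulsion formulation across the surface of sterilized diluvial soil in which seeds are buried near 1.5 cm deep; boxes are kept in a greenhouse between 25° C. and 30° C.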

[2] = tested on: velvetleaf; experiment: Test Example 5: herbicidal effect by foliage application, plastic box (Table 20, symbol M); format: in vivo, velvetleaf (Abutilon theophrasti); conditions: foliage application, AAH 320 g/ha, three weeks after application
How it was run: (§2)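 Post-emergence foliar test in sterilized diluvial soil. Compound applied as water-diluted emulsion at a predetermined rate to 14-day-old plants; evaluation at three weeks.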

[3] = tested on: blackgrass; experiment: Test Example 4: herbicidal effect by soil treatment (Table 19, symbol J); format: in vivo, blackgrass (Alopecurus myosuroides); conditions: AAH 320 g/ha
How it was run: as §1

[4] = tested on: green foxtail; experiment: Test Example 4: herbicidal effect by soil treatment (Table 19, symbol G); format: in vivo, green foxtail (Setaria viridis); conditions: AAH 320 g/ha
How it was run: as §1

[5] = tested on: barnyard grass; experiment: Test Example 4: herbicidal effect by soil treatment (Table 19, symbol H); format: in vivo, barnyard grass (Echinochloa crus-galli); conditions: AAH 320 g/ha
How it was run: as §1

[6] = tested on: wild oat; experiment: Test Example 5: herbicidal effect by foliage application, plastic box (Table 20, symbol I); format: in vivo, wild oat (Avena fatua); conditions: foliage application, AAH 320 g/ha, three weeks after application
How it was run: as §2

[7] = tested on: persian speedwell; experiment: Test Example 4: herbicidal effect by soil treatment (Table 19, symbol R); format: in vivo, Persian speedwell (Veronica persica); conditions: AAH 320 g/ha
How it was run: as §1

[8] = tested on: southern crabgrass; experiment: Test Example 5: herbicidal effect by foliage application, plastic box (Table 20, symbol F); format: in vivo, southern crabgrass (Digitaria ciliaris); conditions: foliage application, AAH 320 g/ha, three weeks after application
How it was run: as §2

[9] = tested on: persian speedwell; experiment: Test Example 5: herbicidal effect by foliage application, plastic box (Table 20, symbol R); format: in vivo, Persian speedwell (Veronica persica); conditions: foliage application, AAH 320 g/ha, three weeks after application
How it was run: as §2

[10] = tested on: barnyard grass; experiment: Test Example 3: herbicidal effect by foliage application, Wagner pot (Table 18, symbol H); format: in vivo, barnyard grass (Echinochloa crus-galli); conditions: 320 g/ha
How it was run: (§3)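 Plants were sown in alluvial soil held under 0.1–0.5 cm standing water and grown 14 days in a greenhouse at 25–30 °C. An emulsifiable formulation, water-diluted to the set dose, was then sprayed onto the foliage, and effects were scored three weeks later using previously defined criteria.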

[11] = tested on: blackgrass; experiment: Test Example 5: herbicidal effect by foliage application, plastic box (Table 20, symbol J); format: in vivo, blackgrass (Alopecurus myosuroides); conditions: foliage application, AAH 320 g/ha, three weeks after application
How it was run: as §2

[12] = tested on: rice flat sedge; experiment: Test Example 3: herbicidal effect by foliage application, Wagner pot (Table 18, symbol E); format: in vivo, rice flat sedge (Cyperus iria); conditions: 320 g/ha
How it was run: as §3

[13] = tested on: Chinese sprangletop; experiment: Test Example 3: herbicidal effect by foliage application, Wagner pot (Table 18, symbol D); format: in vivo, chinese sprangletop (Leptochloa chinensis); conditions: 320 g/ha
How it was run: as §3

[14] = tested on: redroot pigweed; experiment: Test Example 5: herbicidal effect by foliage application, plastic box (Table 20, symbol N); format: in vivo, redroot pigweed (Amaranthus retroflexus); conditions: foliage application, AAH 320 g/ha, three weeks after application
How it was run: as §2

[15] = tested on: green foxtail; experiment: Test Example 5: herbicidal effect by foliage application, plastic box (Table 20, symbol G); format: in vivo, green foxtail (Setaria viridis); conditions: foliage application, AAH 320 g/ha, three weeks after application
How it was run: as §2

[16] = tested on: velvetleaf; experiment: Test Example 4: herbicidal effect by soil treatment (Table 19, symbol M); format: in vivo, velvetleaf (Abutilon theophrasti); conditions: AAH 320 g/ha
How it was run: as §1

[17] = tested on: southern crabgrass; experiment: Test Example 4: herbicidal effect by soil treatment (Table 19, symbol F); format: in vivo, southern crabgrass (Digitaria ciliaris); conditions: AAH 320 g/ha
How it was run: as §1

[18] = tested on: wild oat; experiment: Test Example 4: herbicidal effect by soil treatment (Table 19, symbol I); format: in vivo, wild oat (Avena fatua); conditions: AAH 320 g/ha
How it was run: as §1

[19] = tested on: Italian ryegrass; experiment: Test Example 4: herbicidal effect by soil treatment (Table 19, symbol K); format: in vivo, Italian ryegrass (Lolium multiflorum); conditions: AAH 320 g/ha
How it was run: as §1

[20] = tested on: Italian ryegrass; experiment: Test Example 5: herbicidal effect by foliage application, plastic box (Table 20, symbol K); format: in vivo, Italian ryegrass (Lolium multiflorum); conditions: foliage application, AAH 320 g/ha, three weeks after application
How it was run: as §2

[21] = tested on: windgrass; experiment: Test Example 5: herbicidal effect by foliage application, plastic box (Table 20, symbol L); format: in vivo, windgrass (Apera spica-venti); conditions: foliage application, AAH 320 g/ha, three weeks after application
How it was run: as §2

[22] = tested on: chickweed; experiment: Test Example 4: herbicidal effect by soil treatment (Table 19, symbol P); format: in vivo, common chickweed (Stellaria media); conditions: AAH 320 g/ha
How it was run: as §1

[23] = tested on: lambsquarters; experiment: Test Example 5: herbicidal effect by foliage application, plastic box (Table 20, symbol O); format: in vivo, lambsquarters (Chenopodium album); conditions: foliage application, AAH 320 g/ha, three weeks after application
How it was run: as §2

[24] = tested on: redroot pigweed; experiment: Test Example 4: herbicidal effect by soil treatment (Table 19, symbol N); format: in vivo, redroot pigweed (Amaranthus retroflexus); conditions: AAH 320 g/ha
How it was run: as §1

[25] = tested on: chickweed; experiment: Test Example 5: herbicidal effect by foliage application, plastic box (Table 20, symbol P); format: in vivo, common chickweed (Stellaria media); conditions: foliage application, AAH 320 g/ha, three weeks after application
How it was run: as §2

[26] = tested on: windgrass; experiment: Test Example 4: herbicidal effect by soil treatment (Table 19, symbol L); format: in vivo, windgrass (Apera spica-venti); conditions: AAH 320 g/ha
How it was run: as §1

[27] = tested on: barnyard grass; experiment: Test Example 5: herbicidal effect by foliage application, plastic box (Table 20, symbol H); format: in vivo, barnyard grass (Echinochloa crus-galli); conditions: foliage application, AAH 320 g/ha, three weeks after application
How it was run: as §2

CCCC(=O)Oc1c(C)nn(C)c(=O)c1-c1c(-c2cccc(C#N)c2)sc2ccccc12 [1-124]
O: lambsquarters, herbicidal effect rating [1]: 0 (Herbicidal rate of 5% or less (almost no effect)) | M: velvetleaf, herbicidal effect [2]: 3 (Herbicidal rate of 40% or more and less than 70%) | J: blackgrass, herbicidal effect rating [3]: 0 (Herbicidal rate of 5% or less (almost no effect)) | G: green foxtail, herbicidal effect rating [4]: 0 (Herbicidal rate of 5% or less (almost no effect)) | H: barnyard grass, herbicidal effect rating [5]: 0 (Herbicidal rate of 5% or less (almost no effect)) | I: wild oat, herbicidal effect [6]: 0 (Herbicidal rate of 5% or less (almost no effect)) | R: persian speedwell, herbicidal effect rating [7]: 0 (Herbicidal rate of 5% or less (almost no effect)) | F: southern crabgrass, herbicidal effect [8]: 0 (Herbicidal rate of 5% or less (almost no effect)) | R: persian speedwell, herbicidal effect [9]: 1 (Herbicidal rate of 5% or more and less than 20%) | herbicidal effect on H (barnyard grass), rating 0-5 [10]: 0 (Herbicidal rate of 5% or less (almost no effect)) | J: blackgrass, herbicidal effect [11]: 0 (Herbicidal rate of 5% or less (almost no effect)) | herbicidal effect on E (rice flat sedge), rating 0-5 [12]: 3 (Herbicidal rate of 40% or more and less than 70%) | herbicidal effect on D (Chinese sprangletop), rating 0-5 [13]: 2 (Herbicidal rate of 20% or more and less than 40%) | N: redroot pigweed, herbicidal effect [14]: 4 (Herbicidal rate of 70% or more and less than 90%) | G: green foxtail, herbicidal effect [15]: 0 (Herbicidal rate of 5% or less (almost no effect)) | M: velvetleaf, herbicidal effect rating [16]: 0 (Herbicidal rate of 5% or less (almost no effect)) | F: southern crabgrass, herbicidal effect rating [17]: 0 (Herbicidal rate of 5% or less (almost no effect)) | I: wild oat, herbicidal effect rating [18]: 0 (Herbicidal rate of 5% or less (almost no effect)) | K: Italian ryegrass, herbicidal effect rating [19]: 0 (Herbicidal rate of 5% or less (almost no effect)) | K: Italian ryegrass, herbicidal effect [20]: 0 (Herbicidal rate of 5% or less (almost no effect)) | L: windgrass, herbicidal effect [21]: 0 (Herbicidal rate of 5% or less (almost no effect)) | P: chickweed, herbicidal effect rating [22]: 3 (Herbicidal rate of 40% or more and less than 70%) | O: lambsquarters, herbicidal effect [23]: 3 (Herbicidal rate of 40% or more and less than 70%) | N: redroot pigweed, herbicidal effect rating [24]: 0 (Herbicidal rate of 5% or less (almost no effect)) | P: chickweed, herbicidal effect [25]: 0 (Herbicidal rate of 5% or less (almost no effect)) | L: windgrass, herbicidal effect rating [26]: 0 (Herbicidal rate of 5% or less (almost no effect)) | H: barnyard grass, herbicidal effect [27]: 0 (Herbicidal rate of 5% or less (almost no effect))
